In ChEMBL document CHEMBL5325447, “Synthesis and SAR study of novel diimide skeleton compounds with the anti-inflammatory activities in vitro and in vivo” (Bioorg Med Chem, 2023):
One block for each molecule: values may come before it. Activity calls are given as the source filed them. No cut-off for these calls is given here.

Legend:
RAW264.7 [1] = assay: Antiinflammatory activity against mouse RAW264.7 cells assessed as inhibition of LPS-induced IL-6 production at 10 uM pretreated with compound for 0.5 hrs followed by incubation with LPS for 24 hrs by ELISA; format: functional; conditions: time 24.5 hrs
[2] = Cytotoxicity against mouse RAW264.7 cells assessed as cell viability at 10 uM incubated for 24 hrs by MTT assay relative to control; format: toxicity, cell-based; conditions: read-out: Activity
Mus musculus [3] = assay: Antiinflammatory activity against LPS-induced acute lung injury C57BL/6J mouse model assessed as decrease in ratio of lung wet to dry weight at 20 mg/kg, ig administered every 12 hrs for 3 times and 30 mins later injected with LPS and measured after 5 hrs; format: functional, organism-based; conditions: time 41.5 hrs
Mus musculus [4] = assay: Antiinflammatory activity against LPS-induced acute lung injury C57BL/6J mouse model assessed as decrease in disruption of lung tissue structure and alveolar wall thickening at 20 mg/kg, ig administered every 12 hrs for 3 times and 30 mins later injected with LPS and measured after 5 hrs; format: functional, organism-based; conditions: time 41.5 hrs
Mus musculus [5] = assay: Antiinflammatory activity against LPS-induced acute lung injury C57BL/6J mouse model assessed as decrease in LPS-induced F4/80 expression in lungs at 20 mg/kg, ig administered every 12 hrs for 3 times and 30 mins later injected with LPS and measured after 5 hrs by immunohistochemical staining based analysis; format: functional, organism-based; conditions: time 41.5 hrs
RAW264.7 [6] = assay: Antiinflammatory activity against mouse RAW264.7 cells assessed as inhibition of LPS-induced IL-6 production pretreated with compound for 0.5 hrs followed by incubation with LPS for 24 hrs by ELISA; format: functional, cell-based
Mus musculus [7] = assay: Antiinflammatory activity against LPS-induced acute lung injury C57BL/6J mouse model assessed as decrease in total protein concentration in BALF at 20 mg/kg, ig administered every 12 hrs for 3 times and 30 mins later injected with LPS and measured after 5 hrs; format: functional, organism-based; conditions: time 41.5 hrs
Mus musculus [8] = assay: Antiinflammatory activity against LPS-induced acute lung injury C57BL/6J mouse model assessed as decrease in neutrophil number in BALF at 20 mg/kg, ig administered every 12 hrs for 3 times and 30 mins later injected with LPS and measured after 5 hrs by Wrigth-Giemsa staining; format: functional, organism-based; conditions: time 41.5 hrs
Mus musculus [9] = assay: Antiinflammatory activity against LPS-induced acute lung injury C57BL/6J mouse model assessed as decrease in LPS-induced IL-6 production in BALF at 20 mg/kg, ig administered every 12 hrs for 3 times and 30 mins later injected with LPS and measured after 5 hrs by ELISA; format: functional, organism-based; conditions: time 41.5 hrs
Mus musculus [10] = assay: Antiinflammatory activity against LPS-induced acute lung injury C57BL/6J mouse model assessed as decrease in LPS-induced TNF-alpha production in BALF at 20 mg/kg, ig administered every 12 hrs for 3 times and 30 mins later injected with LPS and measured after 5 hrs by ELISA; format: functional, organism-based; conditions: time 41.5 hrs
Mus musculus [11] = assay: Antiinflammatory activity against LPS-induced acute lung injury C57BL/6J mouse model assessed as decrease in LPS-induced IL-6 production in serum at 20 mg/kg, ig administered every 12 hrs for 3 times and 30 mins later injected with LPS and measured after 5 hrs by ELISA; format: functional, organism-based; conditions: time 41.5 hrs
Mus musculus [12] = assay: Antiinflammatory activity against LPS-induced acute lung injury C57BL/6J mouse model assessed as decrease in LPS-induced TNF-alpha production in serum at 20 mg/kg, ig administered every 12 hrs for 3 times and 30 mins later injected with LPS and measured after 5 hrs by ELISA; format: functional, organism-based; conditions: time 41.5 hrs
Mus musculus [13] = assay: Antiinflammatory activity against LPS-induced hyperemia C57BL/6J mouse model assessed as decrease in LPS-induced death rate at 20 mg/kg, po administered 1 hr prior to LPS stimulation and measured for 1 week; format: functional, organism-based; conditions: time 1.0 weeks
Mus musculus [14] = assay: Antiinflammatory activity against LPS-induced hyperemia C57BL/6J mouse model assessed as decrease in LPS-induced weight loss at 20 mg/kg, po administered 1 hr prior to LPS stimulation and measured for 1 week; format: functional, organism-based; conditions: time 1.0 weeks
Mus musculus [15] = assay: Antiinflammatory activity against LPS-induced hyperemia C57BL/6J mouse model assessed as decrease in LPS-induced morphological changes in spleen at 20 mg/kg, po administered 1 hr prior to LPS stimulation by Hematoxylin-Eosin staining based analysis; format: functional, organism-based
RAW264.7 [16] = assay: Antiinflammatory activity against mouse RAW264.7 cells assessed as inhibition of LPS-induced TNF-alpha production pretreated with compound for 0.5 hrs followed by incubation with LPS for 24 hrs by ELISA; format: functional, cell-based

SMILES: CC(C)Cc1ccc(C(C)C(=O)NC(=O)/C=C/c2ccccc2)cc1 (configuration not stated)
inhibition at 10 µM (RAW264.7 [1]): 90.1%
viability at 24 h, 10 µM [2]: 94.4%

SMILES: CC(C)(C)OC(=O)N1CCC(C(=O)NC(=O)/C=C/c2ccccc2)C1 (configuration not stated)
inhibition at 10 µM (RAW264.7 [1]): 77.5%
viability at 24 h, 10 µM [2]: 135%

SMILES: O=C(NC(=O)c1cccs1)c1ccccc1
inhibition at 10 µM (RAW264.7 [1]): 62.3%
viability at 24 h, 10 µM [2]: 99.3%

SMILES: COc1cc(/C=C/C(=O)CC(=O)/C=C/c2ccc(O)c(OC)c2)ccc1O [CURCUMIN]
inhibition at 10 µM (RAW264.7 [1]): 87%
viability at 24 h, 10 µM [2]: 120%

SMILES: CC(C)Cc1ccc(C(C)C(=O)O)cc1 (configuration not stated) [IBUPROFEN]
inhibition at 10 µM (RAW264.7 [1]): 61%
viability at 24 h, 10 µM [2]: 132%

SMILES: O=C(NC(=O)c1ccccc1)c1ccccc1
inhibition at 10 µM (RAW264.7 [1]): 66.7%
viability at 24 h, 10 µM [2]: 109%

SMILES: O=C(NC(=O)c1cc2ccccc2[nH]1)c1ccccc1
inhibition at 10 µM (RAW264.7 [1]): 77.2%
viability at 24 h, 10 µM [2]: 90.5%

SMILES: O=C(NC(=O)c1cccnc1)c1ccccc1
inhibition at 10 µM (RAW264.7 [1]): 62%
viability at 24 h, 10 µM [2]: 103%

SMILES: COc1ccc2cc([C@H](C)C(=O)O)ccc2c1 [NAPROXEN]
inhibition at 10 µM (RAW264.7 [1]): 52.2%
viability at 24 h, 10 µM [2]: 112%

SMILES: COc1ccc2cc(C(C)C(=O)NC(=O)/C=C/c3ccccc3)ccc2c1 (configuration not stated)
inhibition at 10 µM (RAW264.7 [1]): 79.1%
viability at 24 h, 10 µM [2]: 78.5%

SMILES: COc1ccc2cc(C(C)C(=O)NC(=O)C(C)c3ccc(CC(C)C)cc3)ccc2c1 (configuration not stated)
inhibition at 10 µM (RAW264.7 [1]): 55.7%
viability at 24 h, 10 µM [2]: 117%

SMILES: O=C(NC(=O)c1ccco1)c1ccccc1
inhibition at 10 µM (RAW264.7 [1]): 70.2%
viability at 24 h, 10 µM [2]: 106%

SMILES: O=C(/C=C/c1ccccc1)NC(=O)c1ccccc1
inhibition at 10 µM (RAW264.7 [1]): 90.7%
viability at 24 h, 10 µM [2]: 72.8%

SMILES: C[C@@H]1C[C@H]2[C@@H]3CCC4=CC(=O)C=C[C@]4(C)[C@@]3(F)[C@@H](O)C[C@]2(C)[C@@]1(O)C(=O)CO
Activity (Mus musculus [3]): Active
Activity (Mus musculus [4]): Active
Activity (Mus musculus [5]): Active

SMILES: O=C(CCc1ccccc1)NC(=O)c1cccs1
inhibition (RAW264.7 [1]): Active

SMILES: c1ccc(CCCNCc2cccs2)cc1
inhibition (RAW264.7 [1]): Active

IC50 (RAW264.7 [6]): 1.59 µM
IC50 (RAW264.7 [16]): 15.3 µM
SMILES: O=C(/C=C/c1ccccc1)NC(=O)c1cccs1
inhibition at 10 µM (RAW264.7 [1]): 94.8%
viability at 24 h, 10 µM [2]: 110%
inhibition (RAW264.7 [6]; time 24.5 hrs): Dose-Dependent Effect
Activity (Mus musculus [7]): Active
Activity (Mus musculus [8]): Active
Activity (Mus musculus [9]): Active
Activity (Mus musculus [3]): Active
Activity (Mus musculus [4]): Active
Activity (Mus musculus [10]): Active
Activity (Mus musculus [11]): Active
Activity (Mus musculus [12]): Active
Activity (Mus musculus [5]): Active
Activity (Mus musculus [13]): Active
Activity (Mus musculus [14]): Active
Activity (Mus musculus [15]): Active
inhibition (RAW264.7 [16]; time 24.5 hrs): Dose-Dependent Effect

SMILES: O=C(NC(=O)C1CCNC1)c1ccccc1 (configuration not stated)
inhibition at 10 µM (RAW264.7 [1]): 74%
viability at 24 h, 10 µM [2]: 115%

SMILES: COc1ccc2cc(C(C)C(=O)NC(=O)c3ccccc3)ccc2c1 (configuration not stated)
inhibition at 10 µM (RAW264.7 [1]): 71.2%
viability at 24 h, 10 µM [2]: 89.7%

SMILES: O=C(NC(=O)c1ccc2ccccc2n1)c1ccccc1
inhibition at 10 µM (RAW264.7 [1]): 74%
viability at 24 h, 10 µM [2]: 88.2%

SMILES: O=C(/C=C/c1ccccc1)NC(=O)/C=C/c1ccccc1
inhibition at 10 µM (RAW264.7 [1]): 82.5%
viability at 24 h, 10 µM [2]: 20.2%

SMILES: O=C(NCCCc1ccccc1)c1cccs1
inhibition (RAW264.7 [1]): Active

SMILES: O=C(CCc1ccccc1)NCc1cccs1
inhibition (RAW264.7 [1]): Active

SMILES: CC(C)(C)OC(=O)N1CCC(C(=O)NC(=O)c2ccccc2)C1 (configuration not stated)
inhibition at 10 µM (RAW264.7 [1]): 60.6%
viability at 24 h, 10 µM [2]: 143%

SMILES: O=C(/C=C/c1ccccc1)NC(=O)C1CCNC1 (configuration not stated)
inhibition at 10 µM (RAW264.7 [1]): 74%
viability at 24 h, 10 µM [2]: 130%

SMILES: O=C(/C=C/c1ccccc1)NC(=O)c1cc2ccccc2[nH]1
inhibition at 10 µM (RAW264.7 [1]): 32%
viability at 24 h, 10 µM [2]: 32.4%

SMILES: O=C(/C=C/c1ccccc1)NCc1cccs1
inhibition (RAW264.7 [1]): Active

SMILES: O=C(/C=C/c1ccccc1)NC(=O)c1ccc2ccccc2n1
inhibition at 10 µM (RAW264.7 [1]): 83.3%
viability at 24 h, 10 µM [2]: 93.2%

SMILES: O=C(/C=C/c1ccccc1)NC(=O)c1ccco1
inhibition at 10 µM (RAW264.7 [1]): 88.6%
viability at 24 h, 10 µM [2]: 97.3%

SMILES: CC(C)Cc1ccc(C(C)C(=O)NC(=O)c2ccccc2)cc1 (configuration not stated)
inhibition at 10 µM (RAW264.7 [1]): 71.1%
viability at 24 h, 10 µM [2]: 91%
